Among the data in patent US20240300980A1, “HETEROCYCLIC COMPOUNDS AS KRAS INHIBITOR, AND PREPARATION THEREFOR AND USE THEREOF IN TREATMENT” (SHANGHAI KECHOW PHARMA, INC., priority 2021, published 2024) are IC50 values, retold here.

By IC50 is commonly meant the point on the concentration scale where inhibition reaches its midpoint.

This assay deals with AGS cells (KRAS^G12D). Nature of the assay: Detection of cell proliferation in vitro by MTT/MTS method (cell activity experiment). In kind it is cell-based. Particulars: Homo sapiens, AGS, 72 h, AGS cells; MTT/MTS; 3 days of drug treatment; read-out: AGS IC50. The gist of the method:
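KRAS G12D AGS cells seeded at 1000 per well, compound added 24 h later, 0.5% final DMSO. Viability read after 3 days of treatment by MTT (solubilised in DMSO) or MTS, 4 h, absorbance 490 nm. IC50 from dose–response curves versus DMSO control.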
For the molecule `N#Cc1c(OC[C@@]23CCCN2C[C@H](F)C3)nc2c(F)c(-c3cc(O)cc4cccc(F)c34)ncc2c1N1C[C@H]2CC[C@@H](C1)N2` [Example 194, 4-((1R,5S)-3,8-diazabicyclo[3.2.1]octan-3-yl)-8-fluoro-7-(8-fluoro-3-hydroxynaphthalen-1-yl)-2-(((2R,7aS)-2-fluorotetrahydro-1H-pyrrolizin-7a(5H)-yl)methoxy)-1,6-naphthyridine-3-carbonitrile], the IC50 was determined as 150 nM.
Take `CSC1CCc2cc(O)cc(-c3ncc4c(N5C[C@H]6CC[C@@H](C5)N6)nc(OC[C@@]56CCCN5C[C@H](F)C6)nc4c3F)c21` (stereo partly drawn) [Example 354, 7-(4-((1R,5S)-3,8-diazabicyclo[3.2.1]octan-3-yl)-8-fluoro-2-(((2R,7aS)-2-fluorotetrahydro-1H-pyrrolizin-7a(5H)-yl)methoxy)pyrido[4,3-d]pyrimidin-7-yl)-1-(methylthio)-2,3-dihydro-1H-inden-5-ol]: the IC50 came to 25 nM.
In the case of `Cc1cc(N)nc(-c2ncc3c(N4C[C@H]5CC[C@@H](C4)N5)nc(OCC4(CN5CCCC5)CC4)nc3c2F)c1C1CC1` [Example 9, 6-(4-((1R,5S)-3,8-diazabicyclo[3.2.1]octan-3-yl)-8-fluoro-2-((1-(pyrrolidin-1-ylmethyl)cyclopropyl)methoxy)pyrido[4,3-d]pyrimidin-7-yl)-5-cyclopropyl-4-methylpyridin-2-amine] it was more than 1000 nM.
As for `C#Cc1c(F)ccc2cc(O)cc(-c3ccc4c(N5C[C@H]6CC[C@@H](C5)N6)nc(OC[C@]56CCCN5[C@@H](COC(=O)N(C)C)CC6)nc4c3F)c12` [Example 96, ((3R,7aR)-7a-(((4-((1R,5S)-3,8-diazabicyclo[3.2.1]octan-3-yl)-7-(8-ethynyl-7-fluoro-3-hydroxynaphthalen-1-yl)-8-fluoroquinazolin-2-yl)oxy)methyl)hexahydro-1H-pyrrolizin-3-yl)methyl dimethylcarbamate], the figure is 7.9 nM; as for `CCCC1CCc2cc(O)cc(-c3ncc4c(N5C[C@H]6CC[C@@H](C5)N6)nc(OC[C@@]56CCCN5C[C@H](F)C6)nc4c3F)c21` (stereo partly drawn) [Example 242, 7-(4-((1R,5S)-3,8-diazabicyclo[3.2.1]octan-3-yl)-8-fluoro-2-(((2R,7aS)-2-fluorotetrahydro-1H-pyrrolizin-7a(5H)-yl)methoxy)pyrido[4,3-d]pyrimidin-7-yl)-1-propyl-2,3-dihydro-1H-inden-5-ol], 34 nM.
In the case of `O=C1CCc2cc(O)cc(-c3ccc4c(N5C[C@H]6CC[C@@H](C5)N6)nc(OC[C@@]56CCCN5C[C@H](F)C6)nc4c3F)c21` [Example 297, 7-(4-((1R,5S)-3,8-diazabicyclo[3.2.1]octan-3-yl)-8-fluoro-2-(((2R,7aS)-2-fluorotetrahydro-1H-pyrrolizin-7a(5H)-yl)methoxy)quinazolin-7-yl)-5-hydroxy-2,3-dihydro-1H-inden-1-one] it was more than 2500 nM; in that of `C#Cc1c(F)ccc2cc(O)cc(-c3ccc4c(N5CCC6(CCCS6(=O)=O)CC5)nc(OC[C@@]56CCCN5C[C@H](F)C6)nc4c3F)c12` [Example 110, 8-(7-(8-ethynyl-7-fluoro-3-hydroxynaphthalen-1-yl)-8-fluoro-2-(((2R, 7aS)-2-fluorotetrahydro-1H-pyrrolizin-7a(5H)-yl)methoxy)quinazolin-4-yl)-1-thia-8-azaspiro [4.5]decane 1,1-dioxide], more than 2500 nM.
On to `CCc1c(F)ccc2cc(O)cc(-c3ccc4c(N5CC6CCC(C5)[S+]6[O-])nc(OC[C@@]56CCCN5C[C@H](F)C6)nc4c3F)c12` (stereo partly drawn) [Example 162, (1R,5S,8R)-3-(7-(8-ethyl-7-fluoro-3-hydroxynaphthalen-1-yl)-8-fluoro-2-(((2R,7aS)-2-fluorotetrahydro-1H-pyrrolizin-7a(5H)-yl)methoxy)quinazolin-4-yl)-8-thia-3-azabicyclo[3.2.1]octane 8-oxide], for which the IC50 was more than 2500 nM.
As for `[O-][S+]1C2CCC1CN(c1nc(OC[C@@]34CCCN3C[C@H](F)C4)nc3c(F)c(-c4cc(O)cc5ccc(F)c(F)c45)ncc13)C2` (stereo partly drawn) [Example 28, (1R,5S,8R)-3-(7-(7,8-difluoro-3-hydroxynaphthalen-1-yl)-8-fluoro-2-(((2R, 7aS)-2-fluorotetrahydro-1H-pyrrolizin-7a(5H)-yl)methoxy)pyrido[4,3-d]pyrimidin-4-yl)-8-thia-3-azabicyclo [3.2.1]octane 8-oxide], the figure is more than 1000 nM; as for `CC1CCCc2cc(O)cc(-c3c(F)c4nc(OC[C@@]56CCCN5C[C@H](F)C6)nc(N5C[C@H]6CC[C@@H](C5)N6)c4c4cncn34)c21` (stereo partly drawn) [Example 417, 4-(1-((1R,5S)-3,8-diazabicyclo[3.2.1]octan-3-yl)-5-fluoro-3-(((2R,7aS)-2-fluorotetrahydro-1H-pyrrolizin-7a(5H)-yl)methoxy)imidazo[1′,5′:1,2]pyrido[4,3-d]pyrimidin-6-yl)-5-methyl-5,6,7,8-tetrahydronaphthalen-2-ol], 35 nM; as for `CCC1CCCc2cc(O)cc(-c3ncc4c(NCC5(N(C)C)CCC5)nc(OC[C@@]56CCCN5C[C@H](F)C6)nc4c3F)c21` (stereo partly drawn) [Example 422, 4-(4-(((1-(dimethylamino)cyclobutyl)methyl)amino)-8-fluoro-2-(((2R,7aS)-2-fluorotetrahydro-1H-pyrrolizin-7a(5H)-yl)methoxy)pyrido[4,3-d]pyrimidin-7-yl)-5-ethyl-5,6,7,8-tetrahydronaphthalen-2-ol], 35 nM.
As for `CC1CCCc2cc(O)cc(-c3c4c(c5c(N6C[C@H]7CC[C@@H](C6)N7)nc(OC[C@@]67CCCN6C[C@H](F)C7)nc5c3F)OCO4)c21` (stereo partly drawn) [Example 391, 4-(9-((1R,5S)-3,8-diazabicyclo[3.2.1]octan-3-yl)-5-fluoro-7-(((2R,7aS)-2-fluorotetrahydro-1H-pyrrolizin-7a(5H)-yl)methoxy)-[1,3]dioxolo[4,5-f]quinazolin-4-yl)-5-methyl-5,6,7,8-tetrahydronaphthalen-2-ol], the IC50 is 100 nM.
As for `Oc1cc(-c2ccc3c(N4C[C@H]5CC[C@@H](C4)S5)nc(OC[C@@]45CCCN4C[C@H](F)C5)nc3c2F)c2c(F)cccc2c1` [Example 167, 4-(4-((1R,5S)-8-thia-3-azabicyclo[3.2.1]octan-3-yl)-8-fluoro-2-(((2R,7aS)-2-fluorotetrahydro-1H-pyrrolizin-7a(5H)-yl)methoxy)quinazolin-7-yl)-5-fluoronaphthalen-2-ol], the figure is 310 nM; as for `C#Cc1cccc2cc(O)cc(-c3ccc4c(C5C[C@H]6CC[C@@H](C5)N6)nc(OC[C@@]56CCCN5C[C@H](F)C6)nc4c3F)c12` (stereo partly drawn) [Example 138, 4-(4-((1R,5S)-8-azabicyclo[3.2.1]octan-3-yl)-8-fluoro-2-(((2R, 7aS)-2-fluorotetrahydro-1H-pyrrolizin-7a(5H)-yl)methoxy)quinazolin-7-yl)-5-ethynylnaphthalen-2-ol], more than 2500 nM.
As for `C#Cc1c(F)ccc2cc(O)cc(-c3ccc4c(C56CCN(CC5)CC6)nc(OC[C@@]56CCCN5C[C@H](F)C6)nc4c3F)c12` [Example 136, 5-ethynyl-6-fluoro-4-(8-fluoro-2-(((2R,7aS)-2-fluorotetrahydro-1H-pyrrolizin-7a(5H)-yl)methoxy)-4-(quinuclidin-4-yl)quinazolin-7-yl)naphthalen-2-ol], the figure is more than 2500 nM.
In the case of `C#Cc1c(F)ccc2cc(O)cc(-c3ncc4c(N5CC6CCCC(C5)N6)nc(OC[C@@]56CCCN5C[C@H](F)C6)nc4c3F)c12` [Example 43, 4-(4-(3,9-diazabicyclo [3.3.1]nonan-3-yl)-8-fluoro-2-(((2R,7aS)-2-fluorotetrahydro-1H-pyrrolizin-7a(5H)-yl)methoxy)pyrido[4,3-d]pyrimidin-7-yl)-5-ethynyl-6-fluoronaphthalen-2-ol] it was 31 nM; in that of `Oc1cc(-c2ncc3c(C4C[C@H]5CC[C@@H](C4)N5)nc(OC[C@@]45CCCN4C[C@H](F)C5)nc3c2F)c2c(F)c(F)ccc2c1` (stereo partly drawn) [Example 78, 4-(4-((1R,5S)-8-azabicyclo[3.2.1]octan-3-yl)-8-fluoro-2-(((2R,7aS)-2-fluorotetrahydro-1H-pyrrolizin-7a(5H)-yl)methoxy)pyrido[4,3-d]pyrimidin-7-yl)-5,6-difluoronaphthalen-2-ol], more than 2500 nM.
For `CCC1CCCc2cc(O)cc(-c3c(Cl)cc4c(N5C[C@H]6CC[C@@H](C5)N6)nc(OC[C@@]56CCCN5C[C@H](F)C6)nc4c3F)c21` (stereo partly drawn) [Example 303, 4-(4-((1R,5S)-3,8-diazabicyclo[3.2.1]octan-3-yl)-6-chloro-8-fluoro-2-(((2R,7aS)-2-fluorotetrahydro-1H-pyrrolizin-7a(5H)-yl)methoxy)quinazolin-7-yl)-5-ethyl-5,6,7,8-tetrahydronaphthalen-2-ol], the IC50 was found to be 22 nM.
As to `Oc1ccc2ccccc2c1C#Cc1ccc2c(N3C[C@H]4CC[C@@H](C3)N4)nc(OC[C@@]34CCCN3C[C@H](F)C4)nc2c1F` [Example 365, 1-((4-((1R,5S)-3,8-diazabicyclo[3.2.1]octan-3-yl)-8-fluoro-2-(((2R,7aS)-2-fluorotetrahydro-1H-pyrrolizin-7a(5H)-yl)methoxy)quinazolin-7-yl)ethynyl)naphthalen-2-ol], the IC50 is 3640 nM.
`C#Cc1c(F)ccc2cc(O)cc(-c3ncc4c(N5CC6CC(C5)N6)nc(OC[C@@]56CCCN5C[C@H](F)C6)nc4c3F)c12` [Example 45, 4-(4-(3,6-diazabicyclo [3.1.1]heptan-3-yl)-8-fluoro-2-(((2R,7aS)-2-fluorotetrahydro-1H-pyrrolizin-7a(5H)-yl)methoxy)pyrido[4,3-d]pyrimidin-7-yl)-5-ethynyl-6-fluoronaphthalen-2-ol]: the IC50 is 39 nM.
In the case of `C#Cc1c(F)ccc2cc(O)cc(-c3ccc4c(N5CC(C)(N)C5)nc(OC[C@@]56CCCN5C[C@H](F)C6)nc4c3F)c12` [Example 217, 4-(4-(3-amino-3-methylazetidin-1-yl)-8-fluoro-2-(((2R,7aS)-2-fluorotetrahydro-1H-pyrrolizin-7a(5H)-yl)methoxy)quinazolin-7-yl)-5-ethynyl-6-fluoronaphthalen-2-ol] it was 835 nM.
